Starred links: 1 amine or outer side, 2 acyl side, 3 side chain; linkers in the order of their positions; H or OH if unused. Residues, ends and D or L forms follow the SMILES beside them. CO = O=C([*:1])[*:2]
Test system: SARS‐CoV‐2 spike (delta/omicron variant) pseudotyped particle
Assay: microbe, parasite or virus in culture
Format: cell-based
Details: for EC50: Severe acute respiratory syndrome coronavirus 2, A549-hACE2-TMPRSS2, read-out: EC50 SARS-CoV-2 entry inhibition
[1] = Severe acute respiratory syndrome coronavirus 2, A549-hACE2-TMPRSS2, read-out: SARS-CoV-2 viral entry inhibition

In the case of CN1C2CCC1CC(OC(c1ccc(F)cc1)c1ccc(F)cc1)C2 (stereo not shown) [AHN 1‐055, difluorobenztropine], the EC50 is reported as greater than 50 µM.
For CC(C)[C@H](NC(=O)[C@H](CCCNC(=N)N)NC(=O)N[C@@H](Cc1ccccc1)C(=O)O)C(=O)N[C@H](C=O)CCCNC(=N)N [antipain, L‐Phe‐CO‐L‐Arg‐L‐Val‐L‐Arg‐H] ({Phe-CO}-Arg-Val-Arg-aldehyde), the inhibition at 100 µM [1] was 81%.
Work on CN(C)C(=O)COC(=O)Cc1ccc(OC(=O)c2ccc(NC(=N)N)cc2)cc1 [camostat] yielded an EC50 of 0.98 µM and an inhibition at 50 µM [1] of 97%.
